Values quoted from earlier work as cited in patent US10413528B2, “Methods to inhibit infection during wound healing with topical compositions including amino acids” (priority 2014, dated 2019).

Details: not given

Row | maximum solubility in water [g/L] | Structure (SMILES)
1 | 22.4 | CC(C)C[C@H](N)C(=O)O [leucine]

Same assay, conditions: in water

Row | maximum aqueous solubility [g/L] | Structure (SMILES)
2 | 166.5 | C[C@H](N)C(=O)O [alanine]
3 | 35 | NC(=O)CC[C@H](N)C(=O)O [glutamine]
4 | 41.6 | N[C@@H](Cc1c[nH]cn1)C(=O)O [histidine]
5 | 22.4 | CC(C)C[C@H](N)C(=O)O [leucine]
6 | 53.7 | CSCC[C@H](N)C(=O)O [methionine]
7 | 85 | CC(C)[C@H](N)C(=O)O [valine]
